Source: US4578400A, “Therapeutic composition and method for treatment of cardiovascular diseases” (priority 1982, dated 1986)

Key:
[1] = tested on: chloroform-induced arrhythmia (ventricular fibrillation); assay: Effect on chloroform-induced arrhythmia; type: in vivo, male ddy mice; conditions: for Percent occurrence of ventricular fibrillation / anti-arrhythmic effects (in words): oral; for Percent occurrence of ventricular fibrillation: 15 min before chloroform, control 100; for anti-arrhythmic potency compared with lidocaine (in words): 100 mg/kg oral vs lidocaine 10 mg/kg i.p.
Description: When they stopped breathing, they were thoracotomized to examine the occurrence of ventricular fribrillation. The results are noted in Table 2 as percent occurrence of ventricular fibrillation.

Acute toxicity = conditions: one week observation
Description: Male ddy mice weighing about 25 g were divided into groups of 10 animals and orally administered once with 3 g/kg of 5--HDA, 5--HDA--Na, 5--HDAE, 5--HDA--DHP or δ-DL, or intraperitoneally injected once with 1 g/kg of said compounds.

[2] = Solubility (physicochemical properties, Table 1)
[3] = Lowering serum lipid levels in Triton-induced hyperlipidemic rats; type: in vivo, male Wistar rats; conditions: for inhibition rate, total cholesterol (serum) / inhibition rate, triglyceride (serum): 100 mg/kg oral, four times, against control, 10 hours after Triton WR-1339, *P < 0.05; for antilipidemic effects compared with Clofibrate (in words): 100 mg/kg, oral
Description: After 10 hours, blood samples were drawn to determine the serum levels of total cholesterol and triglyceride.

[4] = tested on: ouabain induced arrhythmia; assay: Effect on ouabain induced arrhythmia; type: in vivo, male hartley guinea pigs; conditions: for relative time for extrasystole to occur / relative time for ventricular fibrillation to occur / relative time for cardiac arrest to occur: oral, 100 mg/kg, control = 100; for relative time for ventricular fibrillation to occur: *P < 0.05; for relative time for cardiac arrest to occur: *P < 0.05 where starred; for antiarrhythmic effects (in words): ouabain induced arrhythmia
Description: Effect on ouabain induced arrhythmia
The procedure described in Matsubara et al. (Folia Pharmacologica Japonica, 72, 557-571, 1976) was followed.
Male hartley guinea pigs were divided into groups of 8 animals and anesthetized with intraperitoneal urethane. Three groups were orally administered 5--HDA--Na, 5--HDAE and 5--HDA--DHP dissolved in distilled water. Another group was intravenously injected with 5--HDA--Na dissolved in physiological saline. One group was orally administered δ-DL emulsified in 5% aqueous arabic gum solution. One group was injected intravenously with lidocaine dissolved in physiological saline. For the respective routes of administration, control groups were administered the solvents used in administration of the test compounds. Thirty minutes after the oral administration and one minute after the intravenous injection, ouabain was infused into the jugular vein at a rate of 5 μg/kg/min until extrasystole, ventricular fibrillation and cardiac arrest appeared on a standard limb lead II of ECG. The results are shown in Table 3, with the time necessary for the respective symptoms to occur in the control groups taken as 100.

[5] = Lowering serum cholesterol levels in hyperlipidemic rabbits; type: in vivo, male Japanese white rabbits; conditions: 100 mg/kg oral daily for 7 days
Description: Male Japanese white rabbits weighing about 2.5 kg were fed on a solid diet containing 1% cholesterol (RC-4, Nippon Crea Co., Ltd.) for 10 weeks until hypercholesterolemia fully developed. The rabbits were then divided into groups of 5 animals, and 5--HDA--Na or δ-DL was orally admininistered daily for 7 days, either as a solution or as an emulsion in 5% aqueous arabic gum. Three hours after the last administration, blood was drawn to determine the serum level of cholesterol.

[6] = molecular target: T1, 3-hydroxy-3-methylglutaryl coenzyme A (HMG-Co A) reductase (Rattus norvegicus, UniProt P51639); assay: Inhibition of HMG-CoA reductase activity; type: biochemical, rat (liver microsome); conditions: rat liver microsome; read-out: IC30 (amount necessary for inhibiting the enzymatic activity by 30%)
T1 sequence (P51639 1-887): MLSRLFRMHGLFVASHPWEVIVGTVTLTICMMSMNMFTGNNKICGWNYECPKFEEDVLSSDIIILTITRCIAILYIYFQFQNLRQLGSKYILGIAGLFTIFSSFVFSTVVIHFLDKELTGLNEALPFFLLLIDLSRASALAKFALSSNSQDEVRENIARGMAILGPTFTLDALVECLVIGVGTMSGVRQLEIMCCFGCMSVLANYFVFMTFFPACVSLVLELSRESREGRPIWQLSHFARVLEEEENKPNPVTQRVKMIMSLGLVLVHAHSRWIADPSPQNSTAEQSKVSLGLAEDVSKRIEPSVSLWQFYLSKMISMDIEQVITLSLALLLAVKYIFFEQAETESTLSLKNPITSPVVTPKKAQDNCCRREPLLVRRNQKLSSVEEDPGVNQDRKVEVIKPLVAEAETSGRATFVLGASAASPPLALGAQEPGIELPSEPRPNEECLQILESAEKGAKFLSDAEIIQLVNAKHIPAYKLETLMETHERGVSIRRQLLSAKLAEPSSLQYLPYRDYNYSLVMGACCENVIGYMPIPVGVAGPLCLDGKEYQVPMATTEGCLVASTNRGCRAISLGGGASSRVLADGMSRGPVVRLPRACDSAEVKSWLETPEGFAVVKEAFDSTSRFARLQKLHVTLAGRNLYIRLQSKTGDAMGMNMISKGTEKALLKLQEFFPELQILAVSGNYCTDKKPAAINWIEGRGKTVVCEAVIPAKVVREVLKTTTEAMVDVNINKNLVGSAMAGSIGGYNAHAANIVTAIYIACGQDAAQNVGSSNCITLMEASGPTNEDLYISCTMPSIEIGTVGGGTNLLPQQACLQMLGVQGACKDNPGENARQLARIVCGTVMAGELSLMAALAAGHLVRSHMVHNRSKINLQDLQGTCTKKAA
Description: Inhibition of the activity of 3-hydroxy-3-methylglutaryl coenzyme A (HMG-Co A) reductase

## CCCCCC(O)CCCC(=O)O (stereo not drawn) [5-HDA, 5-hydroxy-decanoic acid]
[1]; 50 mg/kg
  Percent occurrence of ventricular fibrillation: 60
[1]
  anti-arrhythmic potency compared with lidocaine (in words): more potent than lidocaine
[1]; 100 mg/kg
  anti-arrhythmic effects (in words): significant anti-arrhythmic effects
[1]; 100 mg/kg, *P < 0.05
  Percent occurrence of ventricular fibrillation: 30
Acute toxicity; 1 g/kg intraperitoneal once
  acute toxicity: abnormality: no abnormality occurred
  acute toxicity: death: no animal died
Acute toxicity; 3 g/kg oral once
  acute toxicity: abnormality: no abnormality occurred
  acute toxicity: death: no animal died
[2]
  solubility in acetone: easily
  solubility in benzene: easily
  solubility in chloroform: easily
  solubility in methanol: easily
  solubility in water: sparingly

## CCOC(=O)C(C)(C)Oc1ccc(Cl)cc1 [Clofibrate, reference compound]
[3]
  inhibition rate, total cholesterol (serum): 14%
  inhibition rate, triglyceride (serum): 16%

## CCCCCC1CCCC(=O)O1 (stereo not drawn) [δ-DL, δ-decalactone]
[1]
  anti-arrhythmic potency compared with lidocaine (in words): more potent than lidocaine
[1]; 100 mg/kg
  anti-arrhythmic effects (in words): significant anti-arrhythmic effects
[1]; 100 mg/kg, *P < 0.05
  Percent occurrence of ventricular fibrillation: 30
[4]
  relative time for extrasystole to occur: 157
  relative time for ventricular fibrillation to occur: 137
  relative time for cardiac arrest to occur: 140
  antiarrhythmic effects (in words): significant antiarrhythmic effects
[3]
  inhibition rate, total cholesterol (serum): 23%
  inhibition rate, triglyceride (serum): 11%
  antilipidemic effects compared with Clofibrate (in words): equipotent to or stronger than the effect of the known anti-lipidemic agent, Clofibrate
[5]
  serum level of total cholesterol (in words): lowered the serum level of total cholesterol
[5]; 3 h after last administration, control 1,394, *P < 0.05
  Total serum cholesterol: 1,141 mg/dl
Acute toxicity; 1 g/kg intraperitoneal once
  acute toxicity: abnormality: no abnormality occurred
  acute toxicity: death: no animal died
Acute toxicity; 3 g/kg oral once
  acute toxicity: abnormality: no abnormality occurred
  acute toxicity: death: no animal died
[2]
  solubility in acetone: easily
  solubility in benzene: easily
  solubility in chloroform: easily
  solubility in methanol: easily
  solubility in water: insoluble
[2]; hexane
  solubility in hexane: easily

## CC[C@H](C)C(=O)O[C@H]1CCC=C2C=C[C@H](C)[C@H](CC[C@@H]3C[C@@H](O)CC(=O)O3)[C@H]21 [Compactin, reference compound]
[6]
  IC30: 30 µM

## CCCCCC(O)CCCC(=O)OCC(O)CO (stereo not drawn) [5-HDA-DHP, 2',3'-dihydroxy-propyl-5-hydroxydecanoate]
[1]
  anti-arrhythmic potency compared with lidocaine (in words): more potent than lidocaine
[1]; 100 mg/kg
  anti-arrhythmic effects (in words): significant anti-arrhythmic effects
[1]; 100 mg/kg, *P < 0.05
  Percent occurrence of ventricular fibrillation: 20
[4]
  relative time for extrasystole to occur: 193
  relative time for ventricular fibrillation to occur: 139
  relative time for cardiac arrest to occur: 122
  antiarrhythmic effects (in words): significant antiarrhythmic effects
[3]
  inhibition rate, total cholesterol (serum): 19%
  inhibition rate, triglyceride (serum): 18%
  antilipidemic effects compared with Clofibrate (in words): equipotent to or stronger than the effect of the known anti-lipidemic agent, Clofibrate
Acute toxicity; 1 g/kg intraperitoneal once
  acute toxicity: abnormality: no abnormality occurred
  acute toxicity: death: no animal died
Acute toxicity; 3 g/kg oral once
  acute toxicity: abnormality: no abnormality occurred
  acute toxicity: death: no animal died
[2]
  solubility in acetone: easily
  solubility in chloroform: easily
  solubility in methanol: easily
  solubility in water: soluble

## CCCCCC(O)CCCC(=O)OCC (stereo not drawn) [5-HDAE, Ethyl-5-hydroxy-decanoate]
[1]
  anti-arrhythmic potency compared with lidocaine (in words): more potent than lidocaine
[1]; 100 mg/kg
  anti-arrhythmic effects (in words): significant anti-arrhythmic effects
[1]; 100 mg/kg, *P < 0.05
  Percent occurrence of ventricular fibrillation: 30
[4]
  relative time for extrasystole to occur: 151
  relative time for ventricular fibrillation to occur: 146
  relative time for cardiac arrest to occur: 132
  antiarrhythmic effects (in words): significant antiarrhythmic effects
[3]
  inhibition rate, total cholesterol (serum): 19%
  inhibition rate, triglyceride (serum): 17%
  antilipidemic effects compared with Clofibrate (in words): equipotent to or stronger than the effect of the known anti-lipidemic agent, Clofibrate
Acute toxicity; 1 g/kg intraperitoneal once
  acute toxicity: abnormality: no abnormality occurred
  acute toxicity: death: no animal died
Acute toxicity; 3 g/kg oral once
  acute toxicity: abnormality: no abnormality occurred
  acute toxicity: death: no animal died
[2]
  solubility in acetone: easily
  solubility in benzene: easily
  solubility in chloroform: easily
  solubility in methanol: easily
  solubility in water: sparingly
